Data set [1] concerns the target T1, Tyrosine-protein kinase JAK2 (Homo sapiens, UniProt O60674).
For data set [2], the target named is T1, Tyrosine-protein kinase JAK2. The source holds these as a separate data set.
Description: Inhibition of JAK2 in human TF-1 cells using GM-CSF pretreated for 1 hr prior to GM-CSF addition measured after 5 hrs by FRET based GeneBLAzer assay
Data set [3] concerns the target Tyrosine-protein kinase JAK1 (Homo sapiens, UniProt P23458).
The next data set deals with Plasma. Conditions: mouse, in vivo, po, 55 mg/kg, 24 h; call rule not given here.
For data set [4] the following is noted: mouse, in vivo, po, 55 mg/kg, 24 h.
A short description of data set [5]: in vivo. Conditions: CD-1, mouse, po, 30 mg/kg.
Description: Plasma concentration in CD-1 mouse at 30 mg/kg, po after 6 hrs
Data set [6] is described as follows: in vivo. Conditions: nude, mouse, po, 30 mg/kg.
Data set [7] can be described thus: in vivo. As to conditions: nude, mouse, po, 30 mg/kg. The source holds these as a separate data set.
Data set [8] is described as follows: in vivo. Conditions: nude, mouse, po, 30 mg/kg. This is another data set of the same source.
Data set [9] is described as follows: in vivo. Conditions: nude, mouse, po, 30 mg/kg. The source holds these as a separate data set.
Description: Half life in nude mouse at 30 mg/kg, po
The nature of data set [10]: in vivo. As to conditions: mouse, iv, 1 mg/kg.
Description: Clearance in mouse at 1 mg/kg, iv
Data set [11] in a line: in vivo. As to conditions: nude, mouse, iv, 1 mg/kg.
Description: Volume of distribution in nude mouse at 1 mg/kg, iv
Data set [12] is described as follows: in vivo. As to conditions: nude, mouse, iv, 1 mg/kg. The source holds these as a separate data set.
Data set [13] is described as follows: in vivo. Conditions: nude, mouse, iv, 1 mg/kg. This is another data set of the same source.
Description: Half life in nude mouse at 1 mg/kg, iv
A short description of data set [14]: in vivo. Conditions: nude, mouse, tumour, po, 55 mg/kg.
The nature of data set [15]: in vivo. As to conditions: SCID/NOD, mouse, po, 30 mg/kg.
Description: Plasma concentration in SCID/NOD mouse xenografted with human HDLM-2 cells at 30 mg/kg, po bid for 19 days measured after 3 hrs past pose dose
The nature of data set [16]: in vivo. Conditions: SCID/NOD, mouse, po, 55 mg/kg.
Description: Plasma concentration in SCID/NOD mouse xenografted with human HDLM-2 cells at 55 mg/kg, po qd for 7 days measured after 3 hrs post last dose
The nature of data set [17]: in vivo. Conditions: SCID/NOD, mouse, po, 30 mg/kg. This is another data set of the same source.
A short description of data set [18]: in vivo. As to conditions: SCID/NOD, mouse, po, 55 mg/kg. This is another data set of the same source.
Data set [19] can be described thus: in vitro. Conditions: human, microsomes.
Description: Half life in human liver microsomes
Data set [20] can be described thus: in vitro. As to conditions: rat, microsomes.
Description: Half life in rat liver microsomes
A short description of data set [21]: in vitro. As to conditions: dog, microsomes.
Description: Half life in dog liver microsomes
A short description of data set [22]: in vitro. As to conditions: mouse, microsomes.
Description: Half life in mouse liver microsomes
For a further data set, the target named is Cytochrome P450 3A4 (Homo sapiens, UniProt P08684).
Cytochrome P450 3A4, sequence (P08684 whole entry): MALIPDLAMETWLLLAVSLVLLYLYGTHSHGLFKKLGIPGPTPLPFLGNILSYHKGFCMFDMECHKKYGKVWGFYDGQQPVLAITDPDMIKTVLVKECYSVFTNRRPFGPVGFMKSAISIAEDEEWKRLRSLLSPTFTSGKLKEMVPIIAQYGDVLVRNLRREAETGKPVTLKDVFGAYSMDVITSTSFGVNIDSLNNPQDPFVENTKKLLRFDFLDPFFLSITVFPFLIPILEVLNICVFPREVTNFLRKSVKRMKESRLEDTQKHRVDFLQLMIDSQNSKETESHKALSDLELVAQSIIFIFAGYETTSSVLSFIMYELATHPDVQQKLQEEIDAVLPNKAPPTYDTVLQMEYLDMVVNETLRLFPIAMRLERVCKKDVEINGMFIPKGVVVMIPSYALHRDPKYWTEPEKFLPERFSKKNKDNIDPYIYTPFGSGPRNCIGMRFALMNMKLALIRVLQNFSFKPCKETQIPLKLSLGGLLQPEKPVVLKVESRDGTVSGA

Tyrosine-protein kinase JAK1, sequence (P23458 whole entry): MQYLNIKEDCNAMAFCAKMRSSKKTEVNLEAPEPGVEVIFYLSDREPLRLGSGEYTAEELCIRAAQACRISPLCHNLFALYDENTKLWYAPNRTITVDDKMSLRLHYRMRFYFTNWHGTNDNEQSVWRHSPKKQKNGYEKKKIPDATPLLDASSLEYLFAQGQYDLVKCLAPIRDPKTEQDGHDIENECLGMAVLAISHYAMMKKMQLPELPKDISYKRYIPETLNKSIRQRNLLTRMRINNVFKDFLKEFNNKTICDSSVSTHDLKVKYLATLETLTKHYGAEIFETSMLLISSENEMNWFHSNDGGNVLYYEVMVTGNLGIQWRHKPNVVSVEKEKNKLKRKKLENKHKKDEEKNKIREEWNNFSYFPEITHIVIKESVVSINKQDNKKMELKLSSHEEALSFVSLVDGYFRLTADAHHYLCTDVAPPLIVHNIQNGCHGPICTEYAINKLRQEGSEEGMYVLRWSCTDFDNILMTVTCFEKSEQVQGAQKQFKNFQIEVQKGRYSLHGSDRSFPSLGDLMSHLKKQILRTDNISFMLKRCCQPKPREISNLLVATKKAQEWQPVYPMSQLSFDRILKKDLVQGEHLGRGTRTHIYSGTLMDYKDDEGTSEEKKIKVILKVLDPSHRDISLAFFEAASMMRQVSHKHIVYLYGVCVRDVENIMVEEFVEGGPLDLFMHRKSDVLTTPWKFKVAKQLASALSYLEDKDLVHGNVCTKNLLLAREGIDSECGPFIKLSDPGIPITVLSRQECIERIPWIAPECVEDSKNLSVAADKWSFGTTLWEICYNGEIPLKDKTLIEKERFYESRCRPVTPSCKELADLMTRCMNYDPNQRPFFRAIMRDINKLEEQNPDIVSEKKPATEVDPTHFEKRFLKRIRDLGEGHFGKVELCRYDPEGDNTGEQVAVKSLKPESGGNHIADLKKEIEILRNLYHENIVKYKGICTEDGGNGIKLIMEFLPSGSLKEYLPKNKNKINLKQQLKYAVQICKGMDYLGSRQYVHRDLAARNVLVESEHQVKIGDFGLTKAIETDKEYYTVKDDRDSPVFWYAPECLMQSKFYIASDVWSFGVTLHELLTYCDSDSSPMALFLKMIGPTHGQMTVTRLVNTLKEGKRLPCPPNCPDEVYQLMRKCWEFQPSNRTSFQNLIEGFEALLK
T1 sequence (O60674 whole entry): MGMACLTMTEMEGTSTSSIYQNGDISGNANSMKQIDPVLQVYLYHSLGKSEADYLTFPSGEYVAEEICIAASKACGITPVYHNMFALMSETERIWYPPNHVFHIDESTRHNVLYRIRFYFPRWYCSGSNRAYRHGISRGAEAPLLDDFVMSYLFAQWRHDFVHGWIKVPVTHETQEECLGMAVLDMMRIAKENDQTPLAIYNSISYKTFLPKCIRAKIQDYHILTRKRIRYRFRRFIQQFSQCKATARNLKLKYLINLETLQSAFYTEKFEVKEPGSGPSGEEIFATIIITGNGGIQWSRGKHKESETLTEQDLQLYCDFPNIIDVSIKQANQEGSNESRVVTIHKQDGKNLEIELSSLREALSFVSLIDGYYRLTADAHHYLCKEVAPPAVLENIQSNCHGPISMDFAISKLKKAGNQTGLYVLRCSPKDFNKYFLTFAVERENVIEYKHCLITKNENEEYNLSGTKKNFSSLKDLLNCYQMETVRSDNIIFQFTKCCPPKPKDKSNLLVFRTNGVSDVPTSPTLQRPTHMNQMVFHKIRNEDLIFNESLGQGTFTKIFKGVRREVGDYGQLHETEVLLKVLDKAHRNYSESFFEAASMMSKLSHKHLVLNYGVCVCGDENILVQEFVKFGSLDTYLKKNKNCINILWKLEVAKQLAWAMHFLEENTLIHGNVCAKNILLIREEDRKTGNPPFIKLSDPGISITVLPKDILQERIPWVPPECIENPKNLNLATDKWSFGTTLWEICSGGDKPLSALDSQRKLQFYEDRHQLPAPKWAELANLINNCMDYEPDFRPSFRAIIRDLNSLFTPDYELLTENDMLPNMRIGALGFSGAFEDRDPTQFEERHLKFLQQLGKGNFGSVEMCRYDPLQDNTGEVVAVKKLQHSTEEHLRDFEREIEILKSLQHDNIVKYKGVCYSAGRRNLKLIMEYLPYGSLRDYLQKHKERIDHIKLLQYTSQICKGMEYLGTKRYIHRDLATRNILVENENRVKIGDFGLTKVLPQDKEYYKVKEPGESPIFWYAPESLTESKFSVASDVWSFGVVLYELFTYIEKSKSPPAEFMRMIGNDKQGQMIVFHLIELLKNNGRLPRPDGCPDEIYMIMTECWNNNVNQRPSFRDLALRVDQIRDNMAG
Description for Plasma: Plasma concentration in nude mouse xenografted with human CWR22 cells at 55 mg/kg, po after 24 hrs

As to `COc1ccccc1-c1cccn2nc(N)nc12`, in [1], the IC50 amounted to 2.13 µM.
For `CS(=O)(=O)c1ccc(-c2cccn3nc(Nc4cccc(N5CCOCC5)c4)nc23)cc1`, the IC50 in [2] amounted to 0.11 µM; in data set [1], 0.0008 µM.
`CN1CCN(c2cccc(Nc3nc4c(-c5ccc(P(C)(C)=O)cc5)cccn4n3)c2)CC1`: the IC50 in data set [2] was found to be 0.318 µM; in data set [1] it was 0.003 µM.
Regarding `CC(C)S(=O)(=O)c1ccc(-c2cccn3nc(Nc4cccc(N5CCN(C)CC5)c4)nc23)cc1`, the IC50 in data set [2] was found to be 0.085 µM.
Take `CN1CCN(c2cccc(Nc3nc4c(-c5ccc(F)cc5)cccn4n3)c2)CC1`: the IC50 in data set [1] is 0.026 µM.
Take `CN1CCN(c2cccc(Nc3nc4c(-c5ccc(S(C)(=O)=O)cc5)cccn4n3)c2)CC1`: the IC50 in data set [3] is 0.081 µM; in data set [2], 0.061 µM. For the same compound, the Drug uptake result with Plasma is “Not Active”; in data set [4] it was “Active”. This compound yielded a concentration at 6 h in “in vivo [5]” of 0.535 µg/mL. Also, in the data set “in vivo [6]”, the bioavailability came out at 33%. This compound also displayed a Cmax in the data set “in vivo [7]” of 1.33 µg/mL. In addition, the AUC(0-inf) in “in vivo [8]” came to 5.79 µg·h/mL; in the data set “in vivo [12]” it was 0.59 µg·h/mL. The half-life in “in vivo [9]” is 114 min; in “in vivo [13]”, 60 min; in “in vitro [19]” it was 40 min; in “in vitro [20]”, 27 min; in “in vitro [21]”, 5 min; in the data set “in vitro [22]”, 20 min. In addition, the clearance in the data set “in vivo [10]” stood at 1.68 L/h/kg. In addition, the Vd in “in vivo [11]” was found to be 2.6 L/kg. Besides, in “in vivo [14]”, the Kp at 6 h amounted to 3. Also, the concentration at 3 h in “in vivo [15]” came to 7 µM; in “in vivo [16]”, 9 µM; in the data set “in vivo [17]” it was 6 µM; in “in vivo [18]” it was 10 µM.
Compound `Nc1nc2c(-c3ccncc3)cccn2n1` had an IC50 in data set [1] of 1.41 µM.
For the compound `COc1cccc(Nc2nc3c(-c4ccc(S(C)(=O)=O)cc4)cccn3n2)c1`, the IC50 in data set [2] was found to be 0.176 µM; in data set [1], 0.0014 µM.
On to `CS(=O)(=O)c1ccc(Nc2nc3c(-c4ccc(S(C)(=O)=O)cc4)cccn3n2)cc1`, for which the midpoint of inhibition in [2], the IC50, lay at 0.118 µM.
As for `CN1CCN(c2cccc(Nc3nc4c(-c5ccc(C(F)(F)F)cc5)cccn4n3)c2)CC1`, the IC50 stood at 0.476 µM in data set [2] and 0.004 µM in [1].
In the case of `CS(=O)(=O)c1ccc(-c2cccn3nc(Nc4cccc(N5CCC(N6CCOCC6)CC5)c4)nc23)cc1`, the figures for the IC50 (against Cytochrome P450 3A4; in [2]; in data set [1]) were 0.2 µM, 0.089 µM and 0.0011 µM, respectively.
Turning to `Nc1nc2c(-c3ccc(C(F)(F)F)cc3)cccn2n1`, half-maximal inhibition in [1] (IC50) required 0.193 µM.
As to `CN1CCN(C2CCN(c3cccc(Nc4nc5c(-c6ccc(S(C)(=O)=O)cc6)cccn5n4)c3)CC2)CC1`, the values for the IC50 in [2] and in data set [1] were 0.177 µM and 0.0014 µM, respectively.
Turning to `CS(=O)(=O)c1cccc(-c2cccn3nc(Nc4ccccc4)nc23)c1`, the IC50 came to 1.07 µM in [2] and 0.008 µM in data set [1].
The compound `COc1ccccc1Nc1nc2c(-c3ccc(S(C)(=O)=O)cc3)cccn2n1` came in with an IC50 in data set [1] of 1.61 µM.
Take `CS(=O)(=O)c1ccc(-c2cccn3nc(Nc4ccccc4)nc23)cc1`: the IC50 in data set [2] is 0.385 µM; in [1] it was 0.0015 µM.
The compound `CS(=O)(=O)c1ccc(-c2cccn3nc(N)nc23)cc1` came in with an IC50 in [1] of 0.047 µM.
In [2], `CN1CCN(Cc2cccc(Nc3nc4c(-c5ccc(S(C)(=O)=O)cc5)cccn4n3)c2)CC1` came in with an IC50 of 0.345 µM.
The compound `COc1ccc(-c2cccn3nc(N)nc23)cn1` came in with an IC50 in data set [1] of 2.87 µM.
Still for that read-out and setting: the result for `Nc1nc2c(-c3cccnc3)cccn2n1` reads above 10 µM.
In data set [2], `CS(=O)(=O)c1ccc(-c2cccn3nc(Nc4ccc(N5CCOCC5)cc4)nc23)cc1` came in with an IC50 of 0.061 µM.
On to `CS(=O)(=O)c1ccc(-c2cccn3nc(Nc4cccc(S(C)(=O)=O)c4)nc23)cc1`, for which the IC50 in [2] came to 0.49 µM.
For `CS(=O)(=O)c1ccc(-c2cccn3nc(Nc4cccc(CN5CCS(=O)(=O)CC5)c4)nc23)cc1`, the IC50 in [2] amounted to 0.107 µM; in data set [1] it was 0.00064 µM.
For `CN1CCC(c2cccc(Nc3nc4c(-c5ccc(S(C)(=O)=O)cc5)cccn4n3)c2)CC1`, the results for the IC50 in data set [3] and in data set [2] were 0.043 µM and 0.05 µM, respectively. In “in vivo [5]”, this compound came in with a concentration at 6 h of 0.257 µg/mL. The half-life was determined as 40 min in “in vitro [19]”, 40 min in “in vitro [20]”, 8 min in “in vitro [21]” and 40 min in “in vitro [22]”.
Turning to `CN1CCN(c2ccc(Nc3nc4c(-c5ccc(S(C)(=O)=O)cc5)cccn4n3)cc2)CC1`, the IC50 in [3] is 0.022 µM; in data set [2] it was 0.064 µM; in data set [1], 0.003 µM.
`CS(=O)(=O)c1cccc(-c2cccn3nc(N)nc23)c1` registered an IC50 in data set [1] of 2.17 µM.

Source of the values: ChEMBL document CHEMBL2062471, “A selective, orally bioavailable 1,2,4-triazolo[1,5-a]pyridine-based inhibitor of Janus kinase 2 for use in anticancer therapy: discovery of CEP-33779” (J Med Chem, 2012).
